From patent US8563714B2, “Bridged spiro [2.4] heptane derivatives as ALX receptor and/or FPRL2 agonists” (Actelion Pharmaceuticals Ltd., priority 2009, dated 2013)

Assays:
[1] = biological target: T1, human FPRL2 (Homo sapiens, UniProt P25089); assay: Intracellular calcium measurements (FLIPR), agonistic activity in HEK293-hFPRL2-Gα16 cells; assay type: cell-based; settings: Fluo-4 calcium FLIPR, normalized to GLY14-Humanin 100 nM
T1 construct: expressed in transfected cells; host or cells: HEK293 (HEK293-hFPRL2-Gα16)
T1 sequence (P25089 1-353): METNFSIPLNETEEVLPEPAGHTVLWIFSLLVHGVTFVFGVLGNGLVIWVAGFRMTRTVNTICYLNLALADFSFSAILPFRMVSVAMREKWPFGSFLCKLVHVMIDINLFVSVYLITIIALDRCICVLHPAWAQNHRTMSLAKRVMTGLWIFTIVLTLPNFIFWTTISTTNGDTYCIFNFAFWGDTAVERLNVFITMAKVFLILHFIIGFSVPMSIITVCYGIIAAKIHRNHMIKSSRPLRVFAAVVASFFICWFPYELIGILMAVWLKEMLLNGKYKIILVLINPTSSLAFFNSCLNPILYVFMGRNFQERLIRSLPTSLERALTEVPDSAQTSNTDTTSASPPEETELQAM
Procedure, shortened: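 Peak values after baseline subtraction are expressed relative to 100 nM Gly14-Humanin; compounds diluted in assay buffer from 10 mM DMSO stocks.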

[2] = biological target: T2, human ALX receptor (Homo sapiens, UniProt P25090); assay: Intracellular calcium measurements (FLIPR), agonistic activity in HEK293-hALXR-Gα16 cells; assay type: cell-based; settings: Fluo-4 calcium FLIPR, normalized to WKYMVm 10 nM
T2 construct: expressed in transfected cells; host or cells: HEK293 (HEK293-hALXR-Gα16)
T2 sequence (P25090 1-351): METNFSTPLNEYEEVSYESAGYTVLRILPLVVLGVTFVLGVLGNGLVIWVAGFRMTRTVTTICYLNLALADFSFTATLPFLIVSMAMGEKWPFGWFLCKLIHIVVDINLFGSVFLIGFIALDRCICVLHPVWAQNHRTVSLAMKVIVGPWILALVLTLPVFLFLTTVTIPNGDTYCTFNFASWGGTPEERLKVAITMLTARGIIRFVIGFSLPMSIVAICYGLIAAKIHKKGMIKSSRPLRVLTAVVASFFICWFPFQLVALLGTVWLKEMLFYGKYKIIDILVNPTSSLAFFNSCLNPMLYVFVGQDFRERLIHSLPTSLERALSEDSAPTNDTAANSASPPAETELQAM
Procedure, shortened: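 HEK293 cells expressing hALXR and Gα16 were loaded with 1 μM Fluo-4 AM and 20 mM HEPES for 60 min at 37°C, then exposed to serially diluted compound. FLIPR fluorescence was read at ex 488/em 540 nm. Baseline-subtracted peak responses were normalized to 10 nM WKYMVm.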

SMILES | EC50 [1] | EC50 [2]
COC(=O)CCCC(=O)NC[C@H]1[C@H](C(=O)Nc2ccc(Br)cc2)[C@@H]2C=C[C@H]1C21CC1 (racemic) [Example 166, (5R*)—N^5-(4-Bromo-phenyl)-(6R*)-6-{[(4-methoxycarbonyl-butanoyl)-amino]-methyl}-(4S*,7R*)-[4,7-ethenylene-spiro[2.4]heptane]-5-carboxamide] | 4710 nM | 88 nM
O=C(NCCCCN1CCCC1)[C@H]1[C@H](C(=O)NCc2ccc(Br)c(F)c2F)[C@@H]2C=C[C@H]1C21CC1 [Example 327, (5R)—N^5-(4-Bromo-2,3-difluorophenyl-methyl)-(6R)—N^6-(4-pyrrolidino-butyl)-(4S,7R)-[4,7-ethenylene-spiro[2.4]heptane]-5,6-dicarboxamide] | 27 nM | 40 nM
CC(C)(C)OC(=O)NCCCCNC(=O)[C@H]1[C@H](C(=O)Nc2ncc(Br)s2)[C@@H]2CC[C@H]1C21CC1 [Example 332, (5R)—N^5-(5-Bromo-thiazol-2-yl)-(6R)—N^6-(4-tert-butoxycarbonyl-amino-butyl)-(4S,7R)-[4,7-ethylene-spiro[2.4]heptane]-5,6-dicarboxamide] | 3540 nM | 467 nM
O=C(NCCCCN1CCCC1)[C@H]1[C@H](C(=O)Nc2ccc(C(F)(F)F)nc2)[C@@H]2C=C[C@H]1C21CC1 (racemic) [Example 422, (5R*)—N^5-(2-Trifluoromethyl-pyridin-5-yl)-(6R*)—N^6-(4-pyrrolidin-1-yl-butyl)-(4S*,7R*)-[4,7-ethenylene-spiro[2.4]heptane]-5,6-dicarboxamide] | 99 nM | 11 nM
O=C(NCCCCN1CCCC1)[C@H]1[C@H](C(=O)NCc2cc(F)c(Br)cc2F)[C@@H]2C=C[C@H]1C21CC1 [Example 329, (5R)—N^5-(4-Bromo-2,5-difluorophenyl-methyl)-(6R)—N^6-(4-pyrrolidino-butyl)-(4S,7R)-[4,7-ethenylene-spiro[2.4]heptane]-5,6-dicarboxamide] | 64 nM | 301 nM
O=C(NCCCCN1CCCC1)[C@H]1[C@H](C(=O)Nc2ccc(C(F)(F)F)cn2)[C@@H]2C=C[C@H]1C21CC1 (racemic) [Example 252, (5R*)—N^5-(5-Trifluoromethyl-pyridin-2-yl)-(6R*)—N^6-(4-pyrrolidin-1-yl-butyl)-(4S*,7R*)-[4,7-ethenylene-spiro[2.4]heptane]-5,6-dicarboxamide] | 210 nM | 82 nM
NCCCCCNC(=O)[C@H]1[C@H](C(=O)NCc2ccc(Br)cc2F)[C@@H]2CC[C@H]1C21CC1 [Example 326, (5R)—N^5-(4-Bromo-2-fluorophenyl-methyl)-(6R)—N^6-(5-amino-pentyl)-(4S,7R)-[4,7-ethylene-spiro[2.4]heptane]-5,6-dicarboxamide] | 930 nM | 22 nM
O=C(Nc1ncc(Br)s1)C1C(C(=O)NC2CCC(CO)CC2)C2CCC1C21CC1 (single isomer, unassigned) [Example 411] | 6520 nM | 61 nM
O=C(NCCCCN1CCCC1)[C@H]1[C@H](C(=O)Nc2ccc(Br)c(C(F)(F)F)c2)[C@@H]2C=C[C@H]1C21CC1 [Example 395, (5R)—N^5-(4-Bromo-3-trifluoromethylphenyl)-(6R)—N^6-(4-pyrrolidino-butyl)-(4S,7R)-[4,7-ethenylene-spiro[2.4]heptane]-5,6-dicarboxamide] | 13 nM | 3800 nM

Results, then the compound that gave them:

EC50 [1] | EC50 [2] | SMILES
192 nM | 556 nM | Cc1ccc(CNC(=O)[C@H]2[C@H](C(=O)NCCCCN3CCCC3)[C@H]3C=C[C@@H]2C32CC2)o1 (racemic) [Example 137, (5R*)—N^5-(5-Methyl-furan-2-yl-methyl)-(6R*)—N^6-(4-pyrrolidin-1-yl-butyl)-(4S*,7R*)-[4,7-ethenylene-spiro[2.4]heptane]-5,6-dicarboxamide]
27 nM | > 25000 nM | Cc1ccc(CCNC(=O)[C@H]2[C@H](C(=O)NCCCCN3CCCC3)[C@H]3C=C[C@@H]2C32CC2)c(C)c1 (racemic) [Example 385, (5R*)—N^5-(2-(2,4-Dimethylphenyl)ethyl)-(6R*)—N^6-(4-pyrrolidino-butyl)-(4S*,7R*)-[4,7-ethenylene-spiro[2.4]heptane]-5,6-dicarboxamide]
530 nM | 8700 nM | O=C(NCCCCN1CCCC1)[C@H]1[C@H](C(=O)NCc2cccc(OC(F)F)c2)[C@@H]2C=C[C@H]1C21CC1 (racemic) [Example 360, (5R*)—N^5-(3-Difluoromethoxyphenyl-methyl)-(6R*)—N^6-(4-pyrrolidino-butyl)-(4S*,7R*)-[4,7-ethenylene-spiro[2.4]heptane]-5,6-dicarboxamide]
1730 nM | 61 nM | O=C(Cc1ccccc1Cl)NC[C@H]1[C@H](C(=O)Nc2ccc(Br)cc2)[C@@H]2C=C[C@H]1C21CC1 (racemic) [Example 162, (5R*)—N^5-(4-Bromo-phenyl)-(6R*)-6-[(2-(2-chloro-phenyl)-acetylamino)-methyl]-(4S*,7R*)-[4,7-ethenylene-spiro[2.4]heptane]-5-carboxamide]
958 nM | 6700 nM | CC(=O)c1cccc(NC(=O)[C@H]2[C@H](C(=O)NCCCCN3CCCC3)[C@H]3C=C[C@@H]2C32CC2)c1 (racemic) [Example 352, (5R*)—N^5-(3-Acetylphenyl)-(6R*)—N^6-(4-pyrrolidino-butyl)-(4S*,7R*)-[4,7-ethenylene-spiro[2.4]heptane]-5,6-dicarboxamide]
21400 nM | 158 nM | O=C(NCCO)[C@H]1[C@H](C(=O)Nc2ncc(Br)s2)[C@@H]2CC[C@H]1C21CC1 [Example 403, (5R)—N^5-(5-Bromothiazol-2-yl)-(6R)—N^6-(2-hydroxyethyl)-(4S,7R)-[4,7-ethylene-spiro[2.4]heptane]-5,6-dicarboxamide]
554 nM | > 25000 nM | O=C(NCCc1ccccn1)[C@H]1[C@H](C(=O)NCCc2ccc(Cl)cc2)[C@@H]2C=C[C@H]1C21CC1 [Example 389, (5R)—N^5-(2-(4-Chlorophenyl)ethyl)-(6R)—N^6-(2-(pyridin-2-yl)ethyl)-(4S,7R)-[4,7-ethenylene-spiro[2.4]heptane]-5,6-dicarboxamide]
356 nM | 912 nM | COc1cc(F)c(CNC(=O)[C@H]2[C@H](C(=O)NCCCCN3CCCC3)[C@H]3C=C[C@@H]2C32CC2)c(F)c1 (racemic) [Example 226, (5R*)—N^5-(2,6-Difluoro-4-methoxy-phenyl-methyl)-(6R*)—N^6-(4-pyrrolidin-1-yl-butyl)-(4S*,7R*)-[4,7-ethenylene-spiro[2.4]heptane]-5,6-dicarboxamide]
417 nM | > 25000 nM | COc1ccc(CCNC(=O)[C@H]2[C@H](C(=O)NCCCCN3CCCC3)[C@H]3C=C[C@@H]2C32CC2)cc1OC (racemic) [Example 377, (5R*)—N^5-(2-(3,4-Dimethoxyphenyl)ethyl)-(6R*)—N^6-(4-pyrrolidino-butyl)-(4S*,7R*)-[4,7-ethenylene-spiro[2.4]heptane]-5,6-dicarboxamide]
79 nM | 898 nM | CC(NC(=O)C1C(C(=O)NCCCCN2CCCC2)C2C=CC1C21CC1)c1ccc(Br)cc1 (mixture of isomers) [Example 132, (5R*)—N^5-(1-(4-Bromophenyl)-ethyl)-(6R*)—N^6-(4-pyrrolidin-1-yl-butyl)-(4S*,7R*)-[4,7-ethenylene-spiro[2.4]heptane]-5,6-dicarboxamide]
122 nM | 236 nM | O=C(NCCCCN1CCCC1)[C@H]1[C@H](C(=O)Nc2ccc(Br)c(F)c2F)[C@@H]2C=C[C@H]1C21CC1 [Example 316, (5R)—N^5-(4-Bromo-2,3-difluorophenyl)-(6R)—N^6-(4-pyrrolidino-butyl)-(4S,7R)-[4,7-ethenylene-spiro[2.4]heptane]-5,6-dicarboxamide]
173 nM | 1.1 nM | O=C(NCCCCN1CCCC1)[C@H]1[C@H](C(=O)Nc2ccc(Br)nc2)[C@@H]2C=C[C@H]1C21CC1 [Example 258, (5R)—N^5-(2-Bromo-pyridin-5-yl)-(6R)—N^6-(4-pyrrolidin-1-yl-butyl)-(4S,7R)-[4,7-ethenylene-spiro[2.4]heptane]-5,6-dicarboxamide]
2050 nM | 350 nM | CNCCNC(=O)[C@H]1[C@H](C(=O)NCc2ccc(Br)cc2)[C@@H]2C=C[C@H]1C21CC1 (racemic) [Example 305, (5R*)—N^5-(4-Bromophenyl-methyl)-(6R*)—N^6-(2-methylamino-ethyl)-(4S*,7R*)-[4,7-ethenylene-spiro[2.4]heptane]-5,6-dicarboxamide]
